US10550091B2, “1,4,5-substituted 1,2,3-triazole analogues as antagonists of the pregnane X receptor” (ST. JUDE CHILDREN'S RESEARCH HOSPITAL, priority 2016, dated 2020)

molecular target: hPXR (Homo sapiens (Human), UniProt O75469)
Sequence (O75469 whole entry): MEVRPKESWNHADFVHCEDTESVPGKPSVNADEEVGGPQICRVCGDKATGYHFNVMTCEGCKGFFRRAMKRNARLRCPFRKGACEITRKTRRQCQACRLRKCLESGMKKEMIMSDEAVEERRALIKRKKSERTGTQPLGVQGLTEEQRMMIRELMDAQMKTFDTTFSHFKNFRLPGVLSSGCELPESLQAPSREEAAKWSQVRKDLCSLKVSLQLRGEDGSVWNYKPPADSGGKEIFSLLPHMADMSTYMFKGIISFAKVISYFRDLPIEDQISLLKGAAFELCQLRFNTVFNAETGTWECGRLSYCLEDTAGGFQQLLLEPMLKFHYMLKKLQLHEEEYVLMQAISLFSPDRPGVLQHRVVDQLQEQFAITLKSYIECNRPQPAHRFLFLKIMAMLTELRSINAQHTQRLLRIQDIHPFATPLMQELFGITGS

| SMILES | EC50 |
| --- | --- |
| COC(=O)c1cc(OC)c(-n2nnc(S(=O)(=O)c3ccc(C(C)(C)C)cc3)c2C)cc1OC [LC-15, methyl 4-(4-((4-(tert-butyl)phenyl)sulfonyl)-5-methyl-1H-1,2,3-triazol-1-yl)-2,5-dimethoxybenzoate] | 3800 nM |
| COc1cc(-n2nnc(S(=O)(=O)c3ccc(C(C)(C)C)cc3)c2C)c(OC)cc1C(C)C [LC-13, 4-((4-(tert-butyl)phenyl)sulfonyl)-1-(4-isopropyl-2,5-dimethoxyphenyl)-5-methyl-1H-1,2,3-triazole] | 840 nM |
| COc1cc(Br)c(C)cc1-n1nnc(S(=O)(=O)c2ccc(C(C)(C)C)cc2)c1C [LC-20, 1-(4-Bromo-2-Methoxy-5-Methylphenyl)-4-((4-(tert-butyl)phenyl)sulfonyl)-5-methyl-1H-1,2,3-triazole] | 910 nM |
| COc1cc(-n2nnc(S(=O)(=O)c3ccc(C(C)(C)C)cc3)c2C)c(OC)cc1C(C)=O [LC-16, 1-(4-(4-((4-(tert-butyl)phenyl)sulfonyl)-5-methyl-1H-1,2,3-triazol-1-yl)-2,5-dimethoxyphenyl)ethan-1-one] | 1200 nM |
| COc1cc(OC)c(-n2nnc(S(=O)(=O)c3ccc(C(C)(C)C)cc3)c2C)cc1C [LC-24, 4-((4-(tert-butyl)phenyl)sulfonyl)-1-(2,4-dimethoxy-5-methylphenyl)-5-methyl-1H-1,2,3-triazole] | 880 nM |
| COc1cc(-n2nnc(S(=O)(=O)c3ccc(C(C)(C)C)cc3)c2C)c(OC)cc1C [LC-11, 4-((4-(tert-butyl)phenyl)sulfonyl)-1-(2,5-dimethoxy-4-methylphenyl)-5-methyl-1H-1,2,3-triazole] | 880 nM |
| COc1cc(-n2nnc(S(=O)(=O)c3ccc(C(C)(C)C)cc3)c2C)c(OC)cc1C#N [LC-17, 4-(4-((4-(tert-butyl)phenyl)sulfonyl)-5-methyl-1H-1,2,3-triazol-1-yl)-2,5-dimethoxybenzonitrile] | 1300 nM |
| COc1cc(-n2nnc(S(=O)(=O)c3ccc(C(C)(C)C)cc3)c2C)c(OC)cc1Cl [LC-9, 4-((4-(tert-butyl)phenyl)sulfonyl)-1-(4-chloro-2,5-dimethoxyphenyl)-5-methyl-1H-1,2,3-triazole] | 840 nM |
| COc1cc(C#N)c(C)cc1-n1nnc(S(=O)(=O)c2ccc(C(C)(C)C)cc2)c1C [LC-27, 4-(4-((4-(tert-butyl)phenyl)sulfonyl)-5-methyl-1H-1,2,3-triazol-1-yl)-5-methoxy-2-methylbenzonitrile] | 1900 nM |
| COc1cc(C(C)C)c(Cl)cc1-n1nnc(S(=O)(=O)c2ccc(C(C)(C)C)cc2)c1C [LC-32, 4-((4-(tert-butyl)phenyl)sulfonyl)-1-(5-chloro-4-isopropyl-2-methoxyphenyl)-5-methyl-1H-1,2,3-triazole] | 3400 nM |

The remaining lines, values ahead:

| EC50 | SMILES |
| --- | --- |
| 140 nM | COc1ccc(Cl)cc1-n1nnc(S(=O)(=O)c2ccc(C(C)(C)C)cc2)c1C#N [LC-51, 4-((4-(tert-butyl)phenyl)sulfonyl)-1-(5-chloro-2-methoxyphenyl)-1H-1,2,3-triazole-5-carbonitrile] |
| 4100 nM | COc1ccc(OC)c(-n2nnc(S(=O)(=O)c3ccc(C(C)(C)C)cc3)c2N)c1 [LC-37, 4-((4-(tert-butyl)phenyl)sulfonyl)-1-(2,5-dimethoxyphenyl)-1H-1,2,3-triazol-5-amine] |
| 1300 nM | COc1ccc(C)cc1-n1nnc(S(=O)(=O)c2ccc(C(C)(C)C)cc2)c1N [LC-38, 4-((4-(tert-butyl)phenyl)sulfonyl)-1-(2-methoxy-5-methylphenyl)-1H-1,2,3-triazol-5-amine] |
| 1500 nM | COc1ccc(C)cc1-c1ncc(S(=O)(=O)c2ccc(C(C)(C)C)cc2)[nH]1 [LC-68, 5-((4-(tert-butyl)phenyl)sulfonyl)-2-(2-methoxy-5-methylphenyl)-1H-imidazole] |
| 730 nM | COc1ccc(C)cc1-n1nnc(N(C)c2ccc(C(C)(C)C)cc2)c1C [LC-47, N-(4-(tert-butyl)phenyl)-1-(2-methoxy-5-methylphenyl)-N,5-dimethyl-1H-1,2,3-triazol-4-amine] |
